Experimental data: EP4335840A1, “NEW CONTRAST AGENTS FOR USE IN DIAGNOSTIC IMAGING” (priority 2022, dated 2024)

Legend:
[1] = test system: freshly isolated rat hepatocytes; assay: Uptake into freshly isolated rat hepatocytes; conditions: for Uptake rat hepatocytes: 100 µmol Gd/L, 10 min, 37°C, relative to RC1 (Gd-EOB-DTPA); for Inhibition Rifampicine: rat hepatocyte uptake with OATP1B1/1B3 inhibitor Rifampicine, test item and inhibitor each 100 µM
Experimental: The rat hepatocytes were incubated (2.5 ·10^5 cells/well) for 2.5 to 4h in collagen coated 24-well plates (Fa. Beckton Dickinson Biocoat, cell environments, Collagen I Cellware) in Williams E-medium (Fa. Sigma W1878) in an incubator (37°C, 5% CO2 and 95% oxygen). After incubation the adherent hepatocytes were washed once with 37°C Hepes carbonate transport buffer (500 µL/well). The test items and RC1 were prepared from stock solutions (180 to 500 mM concentration) in Hepes carbonate transport buffer at pH 7.4 to reach a final concentration of 100 µmοl Gd/L. The specific uptake of the test item or RC1 into rat hepatocytes via OATP1 B1 and OATP1 B3 was challenged using a known OATP1B1/1B3 inhibitor (Rifampicine, Fa. Sigma R3501, test item and inhibitor 1:1 each 100 µM final concentration). The prepared rat hepatocyte plates were incubated with test solutions (500 µL/well) at 37°C for 10 min using a thermoshaker (Fa. Grant Bio, PHMP). Triplicates were performed for each test item. After incubating the cells were washed once with cold PBS buffer (Fa. Gibco, Dulbeccos PBS (+)). After washing the intact hepatocytes were lysed by addition of 500 µL cold 0.01 % Triton-X 100 in Millipore water for 1h. […] After 1h 500 µL of 10 nM Terbium ICP-MS standard was added in 2% nitric acid and 0.01% Triton 100 before the Gadolinium concentrations in the lysate were measured using ICP-MS (Agilent 8900, singleQuad, integr. Time 0.3 s, no gas, 5 replicates, Gd m/z 157, Tb m/z 159). As a reference standard RC1 is used in the same well plate. The hepatocyte uptake of the test compound is calculated relative to RC1 (resulting in the unit % of RC1).

OATP1B3 [2] = target: T1, OATP1B3 (Homo sapiens, UniProt Q9NPD5); assay: Uptake into stable transfected OATP1B3 HEK 293 cells; assay type: cell-based; conditions: OATP1B3-HEK 293 cell uptake with Rifampicine
T1 sequence (Q9NPD5 1-702): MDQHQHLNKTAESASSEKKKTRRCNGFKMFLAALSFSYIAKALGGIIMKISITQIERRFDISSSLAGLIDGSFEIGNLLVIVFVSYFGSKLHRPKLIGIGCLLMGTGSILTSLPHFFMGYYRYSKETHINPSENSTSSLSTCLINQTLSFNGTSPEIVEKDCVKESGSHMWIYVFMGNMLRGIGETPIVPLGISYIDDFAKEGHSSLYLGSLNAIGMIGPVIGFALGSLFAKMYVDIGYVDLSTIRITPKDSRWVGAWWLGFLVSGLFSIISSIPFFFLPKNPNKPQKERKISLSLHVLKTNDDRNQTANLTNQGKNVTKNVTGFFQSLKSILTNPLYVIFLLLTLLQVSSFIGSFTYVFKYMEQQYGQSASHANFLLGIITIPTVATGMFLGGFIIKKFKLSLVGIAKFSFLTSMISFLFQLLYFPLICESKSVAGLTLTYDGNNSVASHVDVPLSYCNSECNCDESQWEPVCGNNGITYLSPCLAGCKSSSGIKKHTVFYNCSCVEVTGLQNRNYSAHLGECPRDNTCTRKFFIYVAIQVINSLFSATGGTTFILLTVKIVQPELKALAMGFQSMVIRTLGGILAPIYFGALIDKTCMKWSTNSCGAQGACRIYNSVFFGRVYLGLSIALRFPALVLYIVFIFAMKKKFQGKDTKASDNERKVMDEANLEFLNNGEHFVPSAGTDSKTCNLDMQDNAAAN

OATP1B3 [3] = target: T1, OATP1B3; assay: as above; assay type: cell-based; conditions: 100 µM, 40 min, relative to RC1 (Gd-EOB-DTPA)
Experimental: Human transfected OATP1B3 human embryonic kidney 293 cells (OATP1B3 HEK 293, SLCO1B3, Entrez Gene ID: 28234) were used (Leonhardt M et al. Drug Metab Dispos. 2010 Jul;38(7):1024-8). The following culture medium was used: 500 mL DMEM (Dulbecco's Modified Eagle Medium - high Glucose, D6429), 50 mL FCS (fetal bovine serum, Fa. Sigma, F7524), 5.8 mL G418 (Geneticin, Fa. Gibco 10131-027) and 5 mL Pen-Strep. (Penicillin-Streptomycin, Fa. Gibco, Ref 15140-122). Cryopreserved cells were shortly thawed in water bath and diluted in 10 mL warm culture medium (37°C). After medium change the cells were grown for 3d in a 25 cm^2 cell culture flask. After 3 to 5d the cells were transferred into 75 cm^2 flasks. For the splitting of cells these were incubated with 1.5 mL trypsin (Trypsin-EDTA (1x) 0,05%, Ref 25300-054 100ml, Fa. Gibco) for 3-5 min in the incubator (37°C, 5% CO2 and […]). After centrifugation and washing with medium the cells were counted (50 µL cell suspension and 50 µL trypan blue (Trypan Blue Solution, 93595-50ml, Fa. Fluka). Cells were cultured (1×10^5 cells/well) in poly-D-lysine coated 24-well plates (Fa. Corning, Ref: 354414) in 1.5 mL medium per well. After 48 hours in the incubator the medium was changed and 1.5 mL/well sodium butyrate containing medium were added (40 mL culture medium plus 400 µL Na-Butyrate, Fa. Sigma Aldrich B5887-5G, 250 mg in 2.27 mL MilliQ water). After 24 hours in the incubator the medium was vacuumed off and 1.5 mL transport buffer was added and incubated for 10 min. The transport buffer contains the following ingredients: 500 mL HBSS (Hank's balanced salt solution, Hyclone, SH30268.01), 5 mL HEPES buffer (4-(2-hydroxyethyl)-1-piperazine-ethanesulfonic acid, Gibco 15630-056) and 3.9 mL glucose (Sigma, G8270-100, 90 g/200mL MilliQ water). All test items were prepared in transport buffer at a final concentration of 100 µM from stock solutions (180 to 500 mM concentration). The OATP1B3 HEK 293 cells were incubated with test solutions (test item in transport buffer 500 µL) for 40min on a thermoshaker without shaking (PHMP, Fa. Grant Bio). Triplicates were performed for each test item. After incubation the cells were washed with 2 mL of cold PBS (+) buffer (Dulbeccos PBS +, Fa. Gibco). […] As a reference standard Gd-EOB-DTPA (gadoxetate) is used in the same well plate. The OATP1B3 HEK 293 uptake of the test compound is calculated relative to gadoxetate (resulting in the unit % of RC1).

OATP1B1 = target: T2, OATP1B1 (Homo sapiens, UniProt Q9Y6L6); assay: Uptake into stable transfected OATP1B1 HEK 293 cells; assay type: cell-based; conditions: OATP1B1-HEK 293 cell uptake with Rifampicine
T2 sequence (Q9Y6L6 1-691): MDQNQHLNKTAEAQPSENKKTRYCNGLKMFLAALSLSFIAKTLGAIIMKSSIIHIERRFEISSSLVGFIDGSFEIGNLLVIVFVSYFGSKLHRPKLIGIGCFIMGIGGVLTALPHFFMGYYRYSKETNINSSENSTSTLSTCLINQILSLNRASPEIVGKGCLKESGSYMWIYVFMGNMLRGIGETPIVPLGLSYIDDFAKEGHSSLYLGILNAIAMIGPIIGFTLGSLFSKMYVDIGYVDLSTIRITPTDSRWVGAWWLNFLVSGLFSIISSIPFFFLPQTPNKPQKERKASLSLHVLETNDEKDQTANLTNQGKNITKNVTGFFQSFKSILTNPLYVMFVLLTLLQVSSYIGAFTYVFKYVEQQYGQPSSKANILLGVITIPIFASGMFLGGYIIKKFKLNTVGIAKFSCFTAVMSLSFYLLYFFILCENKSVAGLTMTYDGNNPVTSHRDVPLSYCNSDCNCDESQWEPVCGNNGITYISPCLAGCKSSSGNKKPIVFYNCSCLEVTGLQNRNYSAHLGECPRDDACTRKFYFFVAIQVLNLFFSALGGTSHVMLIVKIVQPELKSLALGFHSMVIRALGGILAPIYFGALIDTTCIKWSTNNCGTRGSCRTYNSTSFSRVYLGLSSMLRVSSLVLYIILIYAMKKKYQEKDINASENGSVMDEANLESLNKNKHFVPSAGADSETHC

Row | Substance | Uptake rat hepatocytes [1] | Inhibition Rifampicine [1] | Inhibition Rifampicine (OATP1B3 [2]) | Uptake into OATP1B3-HEK 293 cells (OATP1B3 [3]) | Inhibition Rifampicine (OATP1B1)
1 | Gadolinium-2,2',2"-[10-(carboxymethyl)-2-(4-ethoxybenzyl)-1,4,7,10-tetraazacyclododecane-1,4,7-triyl]triacetate [Example 8] | 143 % of RC1 | 96 % inhibition | 99 % inhibition | 94 % of RC1 | 75 % inhibition
2 | Gadolinium-2,2',2"-[10-(carboxymethyl)-2-(4-ethoxybenzyl)-1,4,7,10-tetraazacyclododecane-1,4,7-triyl]triacetate [Example 9] | 42 % of RC1 | 93 % inhibition | 94 % inhibition | 13 % of RC1 | 23 % inhibition
3 | Gadolinium-2,2',2"-[(2S)-2-(4-butoxybenzyl)-10-(carboxymethyl)-1,4,7,10-tetraaza cyclododecane-1,4,7-triyl]triacetate [Example 12] | 110 % of RC1 | 96 % inhibition | 98 % inhibition | 66 % of RC1 | 81 % inhibition
4 | Gadolinium-2,2',2"-[(2S)-2-(4-butoxybenzyl)-10-(carboxymethyl)-1,4,7,10-tetraaza cyclododecane-1,4,7-triyl]triacetate [Example 13] | 137 % of RC1 | 86 % inhibition | 98 % inhibition | 383 % of RC1 | 88 % inhibition
5 | Gadolinium-2,2',2"-[(2S)-10-(carboxymethyl)-2-(4-ethoxybenzyl)-1,4,7,10-tetraazacyclododecane-1,4,7-triyl]triacetate [Example 10] | 104 % of RC1 | 96 % inhibition | 96 % inhibition | 80 % of RC1 | 73 % inhibition
6 | Gadolinium-2,2',2"-[(2S)-10-(carboxymethyl)-2-(4-ethoxybenzyl)-1,4,7,10-tetraazacyclododecane-1,4,7-triyl]triacetate [Example 11] | 49 % of RC1 | 96 % inhibition | 90 % inhibition | 32 % of RC1 | 64 % inhibition
